The values that follow come from ChEMBL document CHEMBL3046559, “Sterile oat (Avena sterilis L.) cross-resistance profile to ACCase-inhibiting herbicides in Greece” (2012).

Holding throughout (format): functional
Experiment [1] deals with Avena sterilis. Put plainly: Resistance index, ratio of GR50 for Avena sterilis accession P16 to GR50 for Avena sterilis accession P10S.
Experiment [2] relates to Avena sterilis. Put plainly: Resistance index, ratio of GR50 for Avena sterilis accession P17 to GR50 for Avena sterilis accession P10S.
Experiment [3] deals with Avena sterilis. Put plainly: Resistance index, ratio of GR50 for Avena sterilis accession P20 to GR50 for Avena sterilis accession P10S.
In experiment [4] the test system is Avena sterilis. Put plainly: Resistance index, ratio of GR50 for Avena sterilis accession P15 to GR50 for Avena sterilis accession P10S.
For experiment [5], the system named is Avena sterilis. Description: Resistance index, ratio of GR50 for Avena sterilis accession P18 to GR50 for Avena sterilis accession P10S.
For experiment [6], the system named is Avena sterilis. Put plainly: Resistance index, ratio of GR50 for Avena sterilis accession P14 to GR50 for Avena sterilis accession P10S.
The test system of experiment [7] is Avena sterilis. Description: Resistance index, ratio of GR50 for Avena sterilis accession P13S to GR50 for Avena sterilis accession P10S.
For experiment [8], the system named is Avena sterilis. Put plainly: Resistance index, ratio of GR50 for Avena sterilis accession P09 to GR50 for Avena sterilis accession P10S.
The subject of experiment [9] is Avena sterilis. Put plainly: Herbicidal activity against Avena sterilis accession P11 assessed as weed survival at 32 times field recommended herbicide dose.
The test system of experiment [10] is Avena sterilis. Put plainly: Herbicidal activity against Avena sterilis accession P18 assessed as weed survival at 32 times field recommended herbicide dose.
The subject of experiment [11] is Avena sterilis. Description: Herbicidal activity against Avena sterilis accession P21S assessed as weed survival at 1/4 times field recommended herbicide dose.
Experiment [12] relates to Avena sterilis. Description: Resistance index, ratio of GR50 for Avena sterilis accession P02 to GR50 for Avena sterilis accession P10S.
In experiment [13] the test system is Avena sterilis. Description: Resistance index, ratio of GR50 for Avena sterilis accession P22 to GR50 for Avena sterilis accession P10S.
Experiment [14] relates to Avena sterilis. Put plainly: Resistance index, ratio of GR50 for Avena sterilis accession P21S to GR50 for Avena sterilis accession P10S.
For experiment [15], the system named is Avena sterilis. Put plainly: Herbicidal activity against Avena sterilis accession P21S assessed as weed survival at 1/16 times field recommended herbicide dose.
Experiment [16] has as its system Avena sterilis. Description: Resistance index, ratio of GR50 for Avena sterilis accession P06S to GR50 for Avena sterilis accession P10S.
Experiment [17] concerns Avena sterilis. Description: Resistance index, ratio of GR50 for Avena sterilis accession P11 to GR50 for Avena sterilis accession P10S.
Experiment [18] relates to Avena sterilis. Description: Resistance index, ratio of GR50 for Avena sterilis accession P12 to GR50 for Avena sterilis accession P10S.
For experiment [19], the system named is Avena sterilis. Put plainly: Resistance index, ratio of GR50 for Avena sterilis accession P05 to GR50 for Avena sterilis accession P10S.
Experiment [20] relates to Avena sterilis. Put plainly: Resistance index, ratio of GR50 for Avena sterilis accession P19S to GR50 for Avena sterilis accession P10S.
In experiment [21] the test system is Avena sterilis. Description: Resistance index, ratio of GR50 for Avena sterilis accession P08 to GR50 for Avena sterilis accession P10S.
Experiment [22] has as its system Avena sterilis. Put plainly: Resistance index, ratio of GR50 for Avena sterilis accession P03 to GR50 for Avena sterilis accession P10S.
The test system of experiment [23] is Avena sterilis. Put plainly: Herbicidal activity against Avena sterilis accession P18 assessed as weed survival at 4 times field recommended herbicide dose.
Experiment [24] relates to Avena sterilis. Put plainly: Herbicidal activity against Avena sterilis accession P06S assessed as induction of weed mortality.
Experiment [25] concerns Avena sterilis. Description: Resistance index, ratio of GR50 for Avena sterilis accession P04 to GR50 for Avena sterilis accession P10S.
Experiment [26] relates to Avena sterilis. Put plainly: Resistance index, ratio of GR50 for Avena sterilis accession P01 to GR50 for Avena sterilis accession P10S.
Experiment [27] deals with Avena sterilis. Description: Resistance index, ratio of GR50 for Avena sterilis accession P07 to GR50 for Avena sterilis accession P10S.

For the compound `C#CCOC(=O)[C@@H](C)Oc1ccc(Oc2ncc(Cl)cc2F)cc1` [CLODINAFOP PROPARGYL], the Ratio in experiment [1] is 21; in experiment [2], 35; in experiment [3] it was 63; in experiment [4], above 164; in experiment [5] it was 64; in [6], 150. Besides, the Ratio in [7] is 0.6; in [8] it was 6; in [12], above 164; in experiment [13], 15; in experiment [14], 1.4; in experiment [16] it was 1.1. In addition, the Ratio is recorded as above 164 in [17]; above 164 in experiment [18]; 22 in experiment [19]; 3.6 in experiment [20]; above 164 in [21]; above 164 in [22]. Moreover, the figures for the Ratio in experiment [25] and in [26] were above 164 and 130, respectively. Besides, the Survival in experiment [9] was found to be 93%; in [10] it was 20%; in experiment [11], 60%; in [15], 90%; in [23], 80%. Also, the GR50 in experiment [24] was found to be 9 gAi/ha.

Take `COC(=O)C(C)Oc1ccc(Oc2ccc(Cl)cc2Cl)cc1` (centres undefined) [DICLOFOP-METHYL]: the Ratio is recorded as 11 in experiment [1]; 17 in experiment [2]; above 50 in experiment [3]; above 50 in experiment [4]; 20 in experiment [5]; 22 in experiment [6]. The Ratio in [7] is reported as 1; in experiment [8] it was 28; in experiment [27] it was 7; in experiment [12] it was above 50; in experiment [13], 8; in [14], 0.8. The Ratio in experiment [16] is given as 1.1; in experiment [17], above 50; in [18] it was above 50; in experiment [19] it was 10; in experiment [20], 0.9; in experiment [21], 22. The Ratio in experiment [22] was determined as 26; in experiment [25], 28; in [26], 43. Besides, the Survival in experiment [9] is listed as 63%; in experiment [10], 40%; in [11], 83%; in experiment [15] it was 97%; in [23], 80%. Further, in experiment [24], the GR50 was found to be 548 gAi/ha.

On to `CCOC(=O)[C@@H](C)Oc1ccc(Oc2nc3ccc(Cl)cc3o2)cc1` [FENOXAPROP-P-ETHYL], for which the Ratio in experiment [1] was 32; in experiment [2] it was 19; in experiment [3], above 165; in experiment [4], 92; in [5] it was above 165; in experiment [6], 10. Moreover, the Ratio in [7] is 1.1; in experiment [8], 136; in experiment [27], above 165; in experiment [12], 133; in experiment [13] it was 16; in experiment [14], 1.2. In addition, the Ratio was 1.1 in experiment [16]; 145 in experiment [17]; 83 in experiment [18]; 12 in experiment [19]; 1.9 in experiment [20]; 55 in experiment [21]. In addition, the Ratio came to 55 in experiment [22], 59 in [25] and 38 in experiment [26]. For the same compound, the Survival in experiment [9] is given as 50%; in experiment [10], 60%; in experiment [11], 43%; in experiment [15] it was 83%; in [23], 97%. Besides, the GR50 in experiment [24] stood at 18 gAi/ha.

For `COCc1cnc(C2=NC(C)(C(C)C)C(=O)N2)c(C(=O)O)c1` (centres undefined) [IMAZAMOX], the Survival was determined as 0% in [9]; 0% in experiment [10]; 60% in [11]; 97% in experiment [15]; 0% in experiment [23]. In addition, the GR50 in [24] was found to be 9 gAi/ha.

Regarding `CCc1cc(C)cc(CC)c1-c1c(OC(=O)C(C)(C)C)n2n(c1=O)CCOCC2` [PINOXADEN], the Ratio in experiment [3] turned out to be 10; in [7], 1; in experiment [14], 1.4; in [16] it was 0.9; in [20] it was 1.6; in [25], 18. In addition, the Survival came out at 0% in experiment [9]; 0% in [10]; 20% in experiment [11]; 97% in experiment [15]; 0% in experiment [23]. In addition, in experiment [24], the GR50 was determined as 3.5 gAi/ha.

As for `CCO/N=C(\CC)C1=C(O)CC(c2c(C)cc(C)cc2C)CC1=O` (centres undefined) [TRALKOXYDIM], the Ratio in experiment [1] was found to be 32; in experiment [2], 14; in experiment [3], 102; in experiment [4], 26; in experiment [7] it was 1; in [8], 19. For the same compound, the Ratio in [12] is reported as 38; in experiment [13] it was 15; in experiment [14] it was 3; in experiment [16], 1; in [20] it was 0.4; in [21], 27. Also, the Ratio in experiment [22] came to 55; in experiment [25], 266; in experiment [26], 27. In addition, the Survival was 0% in [9]; 0% in experiment [10]; 33% in experiment [11]; 80% in [15]; 20% in [23]. In experiment [24], the GR50 stood at 32 gAi/ha.
